From PubChem BioAssay AID1224911

Target: Serine/threonine-protein kinase PAK 2 (Homo sapiens) (UniProt Q13177)
Assay: PubChem AID 1224911
Conditions: Caliper in vitro kinase assay, phosphorylated PAK2

Sequence of Serine/threonine-protein kinase PAK 2 (Homo sapiens) (Q13177 whole entry, looked up): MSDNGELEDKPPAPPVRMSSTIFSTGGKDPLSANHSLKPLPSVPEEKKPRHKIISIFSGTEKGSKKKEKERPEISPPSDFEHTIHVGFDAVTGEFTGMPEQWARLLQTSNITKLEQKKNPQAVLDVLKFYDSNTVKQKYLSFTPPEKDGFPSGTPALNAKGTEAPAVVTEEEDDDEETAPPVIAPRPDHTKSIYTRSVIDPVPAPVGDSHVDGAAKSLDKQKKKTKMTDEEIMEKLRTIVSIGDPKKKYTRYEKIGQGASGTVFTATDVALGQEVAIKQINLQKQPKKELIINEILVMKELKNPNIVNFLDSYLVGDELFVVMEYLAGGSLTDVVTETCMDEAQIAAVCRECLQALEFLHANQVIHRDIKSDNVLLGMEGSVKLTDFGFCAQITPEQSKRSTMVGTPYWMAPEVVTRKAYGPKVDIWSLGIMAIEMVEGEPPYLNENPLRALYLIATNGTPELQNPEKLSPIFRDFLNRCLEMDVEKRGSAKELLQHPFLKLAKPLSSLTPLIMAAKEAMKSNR

- IC50: 720 nM
Structure (SMILES): CC(C)NC(=O)N1CC[C@H](N=C2Nc3cc(F)ccc3N(CC(F)F)c3ccc(Cl)cc32)C1
